Inconclusive results are not listed. Active and inactive are the calls of the source.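 The calls were made as follows: active = compound lowering the normal-ribosome reporter at least twice as much as the humanized-ribosome reporter, growth loss under a set limit; inconclusive = no clear call, values can overlap the other calls; inactive = the rest.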
Tested on: E. coli WT-GFP vs G2058-humanized RFP, fluorescence, 24 h
Assay: growth inhibition of wild-type GFP E. coli versus G2058-humanized strain, dose response, G2058 mutant RFP vs wild-type GFP, cherry-pick, two tests (AID 1035470)
[1] = E. coli WT-GFP vs G2058-humanized RFP mixed culture, total growth OD600, 24 h
[2] = measured here: G2058 humanized mutant RFP growth

Question: For Cc1cccc(CSCC(=O)N2CCN(S(=O)(=O)c3ccccc3C#N)CC2)c1, which AC50 is on record?
Answer: > 100 µM (inactive)

Question: For O=C(CN1C(=O)c2ccccc2C1=O)Nc1cccc(S(=O)(=O)Nc2ccccc2Cl)c1, which AC50 is on record?
Answer: > 100 µM (inactive)

Question: What about the AC50 [1] of the same molecule?
Answer: > 100 µM

Question: With Cc1ccc(-c2c[n+](CC(=O)Nc3ccccc3)c3n2CCC3)cc1 as the molecule, how does the AC50 [2] read?
Answer: > 100 µM

Question: What does the source list for COC(C(=O)Nc1ccnn1C1CCN(Cc2ccc(Cl)s2)CC1)c1ccccc1 (stereo not drawn)?
Answer: AC50: > 100 µM (inactive); AC50 [2]: > 100 µM

Question: With Cc1ccc(-c2nc3ccc(NS(=O)(=O)c4ccccc4)cc3[nH]2)o1 as the molecule, how does the AC50 read?
Answer: > 100 µM (inactive)

Question: For CCN(CC)S(=O)(=O)c1ccc(N2CCCC2)c(NC(=O)c2ccccc2OC)c1, which AC50 is on record?
Answer: > 100 µM (inactive)

Question: What does the source list for CCOc1ccc2oc(-c3ccccc3)c(C(=O)N(C)C)c2c1?
Answer: AC50: > 100 µM (inactive); AC50 [1]: > 100 µM

Question: How did the AC50 turn out when CCN(CC)S(=O)(=O)c1cc(NC(=O)C(C)N2CCN(Cc3ccc4c(c3)OCO4)CC2)ccc1C (stereo not drawn) was run?
Answer: > 100 µM (inactive)

Question: What about the AC50 [2] of the same molecule?
Answer: > 100 µM

Question: For Cc1nc(C)c(-c2ccn(S(=O)(=O)c3ccc(Cl)cc3)n2)o1, which AC50 is on record?
Answer: > 100 µM (inactive)

Question: How did the AC50 turn out when CCCC(=O)Nc1cccc(C(=O)Nc2ccccc2OCC)c1 was run?
Answer: > 100 µM (inactive)

Question: For COCC#Cc1ccc2c(c1)O[C@H](CN(C)C(=O)c1ccccc1)[C@@H](C)CN([C@H](C)CO)S2(=O)=O, which AC50 [1] is on record?
Answer: > 100 µM

Question: With O=C(CSc1nc(C2CC2)nc2ccccc12)Nc1ccccc1N1CCOCC1 as the molecule, how does the AC50 read?
Answer: > 100 µM (inactive)

Question: What about the AC50 [1] of the same molecule?
Answer: > 100 µM

Question: Which AC50 does the source give for CC(C)C[C@@H](CSc1ccccc1)N1CCN(CC(C)C)CCC1=O here?
Answer: > 100 µM (inactive)

Question: And the AC50 [1]?
Answer: > 100 µM

Question: With CC(C)n1nnnc1C1c2ccccc2C(=O)N1CCOc1ccccc1 (stereo not drawn) as the molecule, how does the AC50 read?
Answer: > 100 µM (inactive)

Question: C[n+]1ccccc1/C=C/c1cc(Br)ccc1O was tested. Which AC50 did it give?
Answer: > 100 µM (inactive)

Question: With COC(=O)c1ccc2nc(-c3ccco3)c(Cc3ccc(C)cc3)n2c1 as the molecule, how does the AC50 [1] read?
Answer: > 100 µM

Question: COc1cc2[nH]c(=S)nc(NCCc3ccc(C)cc3)c2cc1OC was tested. Which AC50 did it give?
Answer: > 100 µM (inactive)

Question: Which results are given for Cc1cc(NC(=O)CCCn2cc([N+](=O)[O-])cn2)n(Cc2ccc(F)cc2)n1?
Answer: AC50: > 100 µM (inactive); AC50 [1]: > 100 µM

Question: O=C(Nc1ccc2nc(-c3ccccc3)[nH]c2c1)c1cccs1 was tested. Which AC50 did it give?
Answer: > 100 µM (inactive)

Question: And the AC50 [1]?
Answer: 51.4 µM

Question: For COc1ccc(NC(=O)Nc2cccc3c2O[C@H](CN(C)S(=O)(=O)c2ccc(Cl)cc2)[C@@H](C)CN([C@H](C)CO)C3=O)cc1, which AC50 is on record?
Answer: > 100 µM (inactive)

Question: For COC(=O)c1ccccc1NC(=O)c1ccc2c(c1)CC(C)O2 (stereo not drawn), which AC50 is on record?
Answer: > 100 µM (inactive)

Question: And the AC50 [1]?
Answer: 52.3 µM

Question: With O=C1CSC(c2cccnc2)N1Cc1ccc(Cl)c(Cl)c1 (stereo not drawn) as the molecule, how does the AC50 [1] read?
Answer: > 100 µM

Question: With CC(C)(C)c1ccc(-c2noc(CCC(=O)NCc3ccco3)n2)cc1 as the molecule, how does the AC50 read?
Answer: > 100 µM (inactive)

Question: And the AC50 [1]?
Answer: > 100 µM

Question: And the AC50 [2]?
Answer: > 100 µM

Question: Which AC50 [1] does the source give for Cc1onc(-c2ccccc2Cl)c1C(=O)Nc1ccc(Cl)cn1 here?
Answer: > 100 µM

Question: How did the AC50 turn out when Cc1nn(CC(=O)OCCOc2ccc(Br)cc2)c(C)c1[N+](=O)[O-] was run?
Answer: > 100 µM (inactive)

Question: With O=C1c2ccccc2CSc2c(O)cccc21 as the molecule, how does the AC50 read?
Answer: > 100 µM (inactive)

Question: For C[C@@H]1CN([C@@H](C)CO)C(=O)c2cccc(NC(=O)c3nc4ccccc4s3)c2O[C@@H]1CN(C)CC1CC1, which AC50 [1] is on record?
Answer: > 100 µM

Question: With CC(C)NC(=O)N(C)C[C@H]1OCCCC[C@@H](C)Oc2ccc(NC(=O)c3ccccc3)cc2C(=O)N([C@@H](C)CO)C[C@H]1C as the molecule, how does the AC50 read?
Answer: > 100 µM (inactive)

Question: With Cc1cc2nc(SCC(=O)O)nc(C)c2cc1C as the molecule, how does the AC50 read?
Answer: > 100 µM (inactive)

Question: And the AC50 [1]?
Answer: > 100 µM

Question: Which AC50 does the source give for COc1ccc(OC)c(-c2nnc3n2N=C(c2ccc(OC)c(OC4CCOC4)c2)CS3)c1 (stereo not drawn) here?
Answer: > 100 µM (inactive)

Question: Which AC50 does the source give for COc1cc2c(c(OC)c1OC)C(c1ccc3c(c1)OCO3)CC(=O)O2 (stereo not drawn) here?
Answer: > 100 µM (inactive)

Question: And the AC50 [1]?
Answer: > 100 µM

Question: For CCOC(=O)c1c(CS(=O)(=O)c2ccccc2)n(C)c2cc(Br)c(O)cc12, which AC50 is on record?
Answer: > 100 µM (inactive)

Question: How did the AC50 turn out when CCOC(=O)c1c(C)[nH]c(C)c1S(=O)(=O)NCCN1CCN(c2ccccc2F)CC1 was run?
Answer: > 100 µM (inactive)

Question: And the AC50 [1]?
Answer: > 100 µM

Question: With Cc1csc2c(N3CCC(C(=O)O)CC3)ncnc12 as the molecule, how does the AC50 read?
Answer: > 100 µM (inactive)

Question: And the AC50 [1]?
Answer: > 100 µM

Question: What about the AC50 [2] of the same molecule?
Answer: 50.4 µM

Question: Which results are given for Cc1cccc(C(=O)NCC(=O)NCCSc2ccc(Br)cc2)c1?
Answer: AC50: > 100 µM (inactive); AC50 [2]: 7.48 µM

Question: For O=S(=O)(NOCc1ccc(Cl)cc1)c1ccc(Cl)cc1, which AC50 [1] is on record?
Answer: > 100 µM

Question: For CC1Cc2cc(-c3csc(NC(=O)Cc4ccccc4)n3)ccc2N1S(C)(=O)=O (stereo not drawn), which AC50 is on record?
Answer: > 100 µM (inactive)

Question: What about the AC50 [1] of the same molecule?
Answer: > 100 µM

Question: How did the AC50 turn out when O=C(c1ccccc1)C1Oc2ccccc2C2CC(c3cccs3)=NN12 (stereo not drawn) was run?
Answer: > 100 µM (inactive)

Question: With CCN(CC)CC(=O)Nc1sc2c(c1C(=O)c1ccccc1OC)CCC2 as the molecule, how does the AC50 read?
Answer: > 100 µM (inactive)

Question: How did the AC50 [1] turn out when O=c1c2ccccc2nc(SCc2ccccc2)n1CC1CCCO1 (stereo not drawn) was run?
Answer: > 100 µM

Question: CCOc1ccccc1C(=O)NCC(=O)OCCOc1cccc(Cl)c1 was tested. Which AC50 [2] did it give?
Answer: > 100 µM

Question: For O=C(O)CCn1c(SCc2cccc3ccccc23)nc2ccccc21, which AC50 is on record?
Answer: > 100 µM (inactive)

Question: What about the AC50 [1] of the same molecule?
Answer: > 100 µM

Question: What does the source list for NC(=O)CSc1nc2cc([N+](=O)[O-])ccc2n1-c1cccc(C(F)(F)F)c1?
Answer: AC50: > 100 µM (inactive); AC50 [1]: > 100 µM

Question: What does the source list for COc1ccc(S(=O)(=O)N2CCOc3ccccc32)cc1?
Answer: AC50 [1]: > 100 µM; AC50 [2]: > 100 µM

Question: How did the AC50 turn out when COC(=O)c1ccc(CN2CCCC(CO)(Cc3ccccc3F)C2)cc1 (stereo not drawn) was run?
Answer: > 100 µM (inactive)

Question: And the AC50 [1]?
Answer: > 100 µM

Question: For Cc1ccc(CC2C(=O)N(c3cc(Cl)ccn3)C(=O)C2C)cc1 (stereo not drawn), which AC50 is on record?
Answer: > 100 µM (inactive)

Question: How did the AC50 turn out when Nc1ncncc1-c1ccc2ccccc2c1 was run?
Answer: > 100 µM (inactive)

Question: What about the AC50 [2] of the same molecule?
Answer: 48.9 µM

Question: For Cc1ccc2nc(-c3ccc(Cl)cc3)c(Cc3ccccc3C(F)(F)F)n2c1, which AC50 [1] is on record?
Answer: > 100 µM

Question: Which AC50 does the source give for Nc1ccccc1Sc1c[nH]c2ccccc12 here?
Answer: > 100 µM (inactive)

Question: And the AC50 [1]?
Answer: > 100 µM

Question: CC(C)(Nc1ccccc1)C(=O)c1ccccc1 was tested. Which AC50 [1] did it give?
Answer: > 100 µM

Question: How did the AC50 turn out when CCCN(Cc1ccco1)S(=O)(=O)c1ccc(OC)c(OC)c1 was run?
Answer: > 100 µM (inactive)

Question: What about the AC50 [1] of the same molecule?
Answer: > 100 µM

Question: What about the AC50 [2] of the same molecule?
Answer: > 100 µM

Question: O=S1(=O)N[C@H](Cc2ccccc2)COc2cc(N3CCSCC3)ccc21 was tested. Which AC50 [1] did it give?
Answer: > 100 µM

Question: How did the AC50 turn out when COC(=O)C1CCN(C(=O)c2ccc(OC)c(S(=O)(=O)N3CCCc4ccccc43)c2)CC1 was run?
Answer: > 100 µM (inactive)

Question: Which AC50 [1] does the source give for COc1ccc2cc(CO)c3cc(OC)c(OC)cc3c2c1 here?
Answer: > 100 µM

Question: What about the AC50 [2] of the same molecule?
Answer: > 100 µM

Question: For O=C(Nc1ccc2c(c1)OCO2)c1ccc([N+](=O)[O-])cc1[N+](=O)[O-], which AC50 is on record?
Answer: > 100 µM (inactive)

Question: Which AC50 does the source give for COCCn1c(SCC(=O)Nc2ccccc2OC)nc2ccccc21 here?
Answer: > 100 µM (inactive)

Question: Cc1onc(-c2ccccc2Cl)c1C(=O)OCC(=O)c1ccccc1 was tested. Which AC50 did it give?
Answer: > 100 µM (inactive)

Question: For COc1cccc(-c2ccc(NC(=O)C3CCCN(Cc4cnn(C(C)C)c4)C3)cc2)c1 (stereo not drawn), which AC50 is on record?
Answer: > 100 µM (inactive)

Question: For O=[N+]([O-])c1cncc([N+](=O)[O-])c1Nc1cccc(O)c1, which AC50 is on record?
Answer: > 100 µM (inactive)

Question: What about the AC50 [1] of the same molecule?
Answer: > 100 µM

Question: Which AC50 does the source give for COc1ccc(C#Cc2ccc([C@@H]3[C@@H](CO)N4CCCCN(C(=O)Nc5ccccc5F)C[C@H]34)cc2)cc1 here?
Answer: > 100 µM (inactive)

Question: CN1OC[C@@H]2CN(C(=O)c3ccco3)[C@H](c3ccc(-c4ccc(C#N)cc4)cc3)C[C@@H]21 was tested. Which AC50 did it give?
Answer: > 100 µM (inactive)

Question: And the AC50 [1]?
Answer: > 100 µM

Question: O=C1c2cccc(OCC(=O)N3CCCc4ccccc43)c2CCN1Cc1cccnc1 was tested. Which AC50 did it give?
Answer: > 100 µM (inactive)

Question: And the AC50 [1]?
Answer: > 100 µM

Question: Which AC50 [2] does the source give for O=C(c1ccc(Cl)cc1)C1CCCN(Cc2cccc3cnccc23)C1 (stereo not drawn) here?
Answer: > 100 µM

From PubChem BioAssay AID1035470 (Broad Institute, 2014)
